{"source": "patent US20240398806A1", "about": "“Compositions For and Methods of Treating and/or Preventing Pain” (Duke University, priority 2021, published 2024)", "key": {"[1]": {"tested_on": "lamina IIo neurons", "parameters": "dose or concentration left out as unconfirmed", "conditions": "slices of PTX-treated mice"}, "[2]": {"molecular_target": "T1, NTSR1 (Homo sapiens, UniProt P30989)", "T1 sequence (P30989 whole entry)": "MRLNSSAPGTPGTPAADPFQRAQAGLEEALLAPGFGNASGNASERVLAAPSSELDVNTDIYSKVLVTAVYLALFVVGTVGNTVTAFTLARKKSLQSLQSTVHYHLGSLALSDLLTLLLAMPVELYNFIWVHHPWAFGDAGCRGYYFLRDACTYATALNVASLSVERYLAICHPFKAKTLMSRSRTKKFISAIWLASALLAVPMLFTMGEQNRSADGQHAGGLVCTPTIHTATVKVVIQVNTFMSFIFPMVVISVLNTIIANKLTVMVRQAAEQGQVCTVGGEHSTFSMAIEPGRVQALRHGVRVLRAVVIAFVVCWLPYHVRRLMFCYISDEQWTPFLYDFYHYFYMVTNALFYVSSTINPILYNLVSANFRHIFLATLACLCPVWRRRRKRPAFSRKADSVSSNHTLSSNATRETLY", "assay": "Gq protein activation / intracellular Ca++ (FIG. 5A)", "format": "cell-based", "parameters": "expressed in transfected cells; host or cells: HEK293T cell membranes", "conditions": "unlike NT", "text": "Preliminary studies provided significant data for this example. SBI-553 was derived from a medicinal chemistry campaign to improve the ML314 probe series and was selected for potency, pharmacokinetic profile, and selectivity for NTSR1 over the NTSR2 (Pinkerton A B, et al. (2019) J Med Chem. 62(17):8357-8363, which is incorporated by reference for its teachings of the making of SBI-553). […] Binding specificity to NTSR1 was further confirmed by comparing membranes containing an off-target receptor (i.e., b2-adrenergic receptor) (Slosky L M, et al. (2020) Cell. 181(6):1364-1379e14). […] These findings indicate that SBI-553 is a β-arrestin-biased ligand that stimulates β-arrestin-mediated processes at NTSR1 […] without activating Gq protein signaling (FIG. 5)."}, "[3]": {"assay": "Cocaine- and methamphetamine-induced hyperlocomotion, open field", "format": "in vivo, mice (C57BL/6J background)", "conditions": "12 mg/kg i.p., WT mice", "procedure": "Once stable performance was achieved, self-administration was assessed once daily in 60 min sessions. Animals received vehicle (saline, i.p.) or SBI-553 (2, 6, or 12 mg/kg, i.p.) immediately prior to placement into self-administration chambers with access to cocaine at doses of 0.1, 0.3, 0.5, or 1 mg/kg/infusion. FIG. 7B-FIG. 7C show cocaine-induced and methamphetamine-induced hyperlocomotion.\nOpen-field testing is used to analyze animal movement. The Accuscan open field (Omnitech Electronics, Inc.) was used to assess locomotor activity as previously described (Toth et al., 2018: Slosky L M, et al. (2020)). Here, animal movement is determined by the breaking of gridded photocell beams.\nThe effect of SBI-553 on cocaine self-administration was both cocaine-dose dependent and SBI-553-dose dependent. […] In the presence of β-arrestin2, SBI-553 reduced activity in mice. A 12 mg/kg (i.p.) dose of SBI-553 decreased both cocaine-and methamphetamine-induced hyperlocomotion in wild-type (WT) mice on a C57BL/6J background (FIG. 7B-FIG. 7C). […] Conversely, a significant reduction in locomotion was absent in global β-arrestin2 KO mice (Slosky L M, et al. (2020) Cell. 181(6):1364-1379e14)."}, "[4]": {"molecular_target": "T2, NTSR2 (Homo sapiens, UniProt O95665)", "T2 construct": "expressed in transfected cells; host or cells: HEK293 cells", "T2 sequence (O95665 whole entry, species assumed)": "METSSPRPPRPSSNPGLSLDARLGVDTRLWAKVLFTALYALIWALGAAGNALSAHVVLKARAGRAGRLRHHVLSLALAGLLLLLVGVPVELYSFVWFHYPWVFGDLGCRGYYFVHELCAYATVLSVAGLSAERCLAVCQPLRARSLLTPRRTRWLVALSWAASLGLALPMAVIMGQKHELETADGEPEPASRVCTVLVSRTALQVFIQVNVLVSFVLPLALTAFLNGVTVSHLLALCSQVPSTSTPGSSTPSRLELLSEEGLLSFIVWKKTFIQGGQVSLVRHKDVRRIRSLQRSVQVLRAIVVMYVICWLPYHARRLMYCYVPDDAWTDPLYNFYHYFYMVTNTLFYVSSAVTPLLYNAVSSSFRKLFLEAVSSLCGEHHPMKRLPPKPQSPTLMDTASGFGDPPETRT", "assay": "Cellular assay of β-arrestin-2 translocation in cells expressing NTSR2", "format": "cell-based", "procedure": "First, using cellular assays, whether IND candidates such as SBI-810 are similar or better than SBI-553 as β-arrestin biased agonist at NTSR1. is assessed. The chemical entities used in this work were synthesized and validated. However, routine validation of the profile of these compounds is performed routinely using both cellular and in vivo assays. For example, HEK293 cells that express either the NTSR1 or NTSR2 are used to assess the functional profile of the various chemical probes. In addition, a series of genetically engineered mouse lines are used to provide an in vivo validation of novel chemical entities for their abilities to module behaviors in these animals.\nFourth, cellular assays are used to establish that IND ready analogs like SBI-810 are still selective for the NTSR1 rather than NTSR2. The specificity of the lead compounds toward NTSR1. NTSR2. and β-arrestin-2 are tested in respective cellular assays. More specifically, cells expressing either NTSR1 or NTSR2 are used to assess the function of various compound. […] This translocation is not observed in cells expressing NTSR2.\nFourth, genetically engineered mice are used to assess the effects and mechanisms of novel ligands. The specificity of the lead compounds toward NTSR1, NTSR2, and β-arrestin-2 dependent signaling is examined. […]"}, "[5]": {"molecular_target": "T1, NTSR1", "assay": "[3H]SBI-553 saturation binding to NTSR1-containing HEK293T cell membranes", "parameters": "expressed in transfected cells; host or cells: HEK293T cell membranes", "conditions": "below 400 nM"}}, "data": [{"smiles": "COc1ccccc1C1CCN(c2nc(C3(F)CC3)nc3ccc(N(C)CCO)cc23)CC1", "note": "[SBI-553]", "values": [{"measurement": "Excitatory synaptic transmission (sEPSCs) in lamina IIo neurons", "setting": "[1]", "value": "significantly suppressed"}, {"measurement": "Activation of G protein Gq / intracellular Ca++", "setting": "[2]", "value": "cannot activate the G protein Gq"}, {"measurement": "Cocaine-induced hyperlocomotion", "setting": "[3]; cocaine 30 mg/kg i.p.", "value": "decreased"}, {"measurement": "Methamphetamine-induced hyperlocomotion", "setting": "[3]; methamphetamine 2 mg/kg i.p.", "value": "decreased"}, {"measurement": "Translocation of β-arrestin-2 to intracellular compartments", "setting": "[4]", "value": "not observed"}, {"measurement": "Specific [3H]SBI-553 binding as share of total binding", "setting": "[5]", "value": "~50", "unit": "%"}]}]}
